From the NIST ThermoML archive (doi:10.1021/je050052+)

Assay: excess molar enthalpy (molar enthalpy of mixing); xn = mol fraction of the nth substance listed
Settings: Liquid, Flow calorimetry

COC(=O)OC [dimethyl carbonate] + CCO
Settings	excess molar enthalpy [kcal/mol]
298.15 K, 1000 kPa, x1 = 0.05	0.1012
298.15 K, 1000 kPa, x1 = 0.1	0.1881
298.15 K, 1000 kPa, x1 = 0.15	0.2526
298.15 K, 1000 kPa, x1 = 0.2	0.3048
298.15 K, 1000 kPa, x1 = 0.25	0.3456
298.15 K, 1000 kPa, x1 = 0.3	0.3728
298.15 K, 1000 kPa, x1 = 0.35	0.3921
298.15 K, 1000 kPa, x1 = 0.4	0.4023
298.15 K, 1000 kPa, x1 = 0.45	0.4067
298.15 K, 1000 kPa, x1 = 0.5	0.4047
298.15 K, 1000 kPa, x1 = 0.55	0.3955
298.15 K, 1000 kPa, x1 = 0.6	0.3776
298.15 K, 1000 kPa, x1 = 0.65	0.3579
298.15 K, 1000 kPa, x1 = 0.7	0.3311
298.15 K, 1000 kPa, x1 = 0.75	0.2963
298.15 K, 1000 kPa, x1 = 0.8	0.2542
298.15 K, 1000 kPa, x1 = 0.85	0.2024
313.15 K, 100 kPa, x1 = 0.0521	0.0984
313.15 K, 100 kPa, x1 = 0.098	0.1854
313.15 K, 100 kPa, x1 = 0.1514	0.2672
313.15 K, 100 kPa, x1 = 0.1988	0.3216
313.15 K, 100 kPa, x1 = 0.2488	0.3685
313.15 K, 100 kPa, x1 = 0.3012	0.4033
313.15 K, 100 kPa, x1 = 0.3519	0.4273
313.15 K, 100 kPa, x1 = 0.4008	0.4431
313.15 K, 100 kPa, x1 = 0.4516	0.447
313.15 K, 100 kPa, x1 = 0.5007	0.4465
313.15 K, 100 kPa, x1 = 0.5515	0.4379
313.15 K, 100 kPa, x1 = 0.6003	0.4197
313.15 K, 100 kPa, x1 = 0.6506	0.3969
313.15 K, 100 kPa, x1 = 0.699	0.3683
313.15 K, 100 kPa, x1 = 0.7513	0.3253
313.15 K, 100 kPa, x1 = 0.7987	0.2835
313.15 K, 100 kPa, x1 = 0.8497	0.2287
313.15 K, 100 kPa, x1 = 0.9012	0.1572
313.15 K, 100 kPa, x1 = 0.9504	0.0808
313.15 K, 1000 kPa, x1 = 0.052	0.1039
313.15 K, 1000 kPa, x1 = 0.0979	0.1898
313.15 K, 1000 kPa, x1 = 0.1513	0.2697
313.15 K, 1000 kPa, x1 = 0.1986	0.3254
313.15 K, 1000 kPa, x1 = 0.2487	0.3721
313.15 K, 1000 kPa, x1 = 0.3011	0.4066
313.15 K, 1000 kPa, x1 = 0.3517	0.4296
313.15 K, 1000 kPa, x1 = 0.4006	0.4435
313.15 K, 1000 kPa, x1 = 0.4515	0.4496
313.15 K, 1000 kPa, x1 = 0.5006	0.4474
313.15 K, 1000 kPa, x1 = 0.5513	0.4373
313.15 K, 1000 kPa, x1 = 0.6002	0.4211
313.15 K, 1000 kPa, x1 = 0.6504	0.3971
313.15 K, 1000 kPa, x1 = 0.6988	0.3677
313.15 K, 1000 kPa, x1 = 0.7511	0.3259
313.15 K, 1000 kPa, x1 = 0.7986	0.2824
313.15 K, 1000 kPa, x1 = 0.8496	0.2284
313.15 K, 1000 kPa, x1 = 0.9011	0.1552
313.15 K, 1000 kPa, x1 = 0.9504	0.0781
313.15 K, 10000 kPa, x1 = 0.0517	0.09719
313.15 K, 10000 kPa, x1 = 0.1019	0.1904
313.15 K, 10000 kPa, x1 = 0.1505	0.2626
313.15 K, 10000 kPa, x1 = 0.2019	0.3232
313.15 K, 10000 kPa, x1 = 0.2517	0.3678
313.15 K, 10000 kPa, x1 = 0.2998	0.4004
313.15 K, 10000 kPa, x1 = 0.3503	0.4236
313.15 K, 10000 kPa, x1 = 0.3992	0.4379
313.15 K, 10000 kPa, x1 = 0.45	0.4441
313.15 K, 10000 kPa, x1 = 0.4991	0.4423
313.15 K, 10000 kPa, x1 = 0.5498	0.4331
313.15 K, 10000 kPa, x1 = 0.5987	0.4174
313.15 K, 10000 kPa, x1 = 0.6491	0.394
313.15 K, 10000 kPa, x1 = 0.7005	0.3625
313.15 K, 10000 kPa, x1 = 0.75	0.3257
313.15 K, 10000 kPa, x1 = 0.8004	0.279
313.15 K, 10000 kPa, x1 = 0.8489	0.2261
313.15 K, 10000 kPa, x1 = 0.9006	0.1567
313.15 K, 10000 kPa, x1 = 0.9501	0.0768
328.15 K, 1000 kPa, x1 = 0.05	0.1153
328.15 K, 1000 kPa, x1 = 0.1	0.2147
328.15 K, 1000 kPa, x1 = 0.15	0.2918
328.15 K, 1000 kPa, x1 = 0.2	0.3565
328.15 K, 1000 kPa, x1 = 0.25	0.4091
328.15 K, 1000 kPa, x1 = 0.3	0.4447
328.15 K, 1000 kPa, x1 = 0.35	0.4711
328.15 K, 1000 kPa, x1 = 0.4	0.4883
328.15 K, 1000 kPa, x1 = 0.45	0.4949
328.15 K, 1000 kPa, x1 = 0.5	0.4942
328.15 K, 1000 kPa, x1 = 0.55	0.4854
328.15 K, 1000 kPa, x1 = 0.6	0.47
328.15 K, 1000 kPa, x1 = 0.65	0.4467
328.15 K, 1000 kPa, x1 = 0.7	0.4113
328.15 K, 1000 kPa, x1 = 0.75	0.3653
328.15 K, 1000 kPa, x1 = 0.8	0.3136
328.15 K, 1000 kPa, x1 = 0.85	0.2508
328.15 K, 1000 kPa, x1 = 0.9	0.1742
328.15 K, 1000 kPa, x1 = 0.95	0.08759
